Assay results taken from patent US20070117858A1, “SUBSTITUTED 5-HETEROARYL-1-PHENYL-PYRAZOLE CANNABINOID MODULATORS” (priority 2005, published 2007).

Assays:
human CB1 receptor = molecular target: T1, human CB1 receptor (Homo sapiens, UniProt P21554); assay: Cannabinoid CB1 receptor binding assay ([3H]-CP-55,940 displacement, SK-N-MC cell membranes); conditions: for inhibition at 0.2 µM: 1.5 h, read-out: Cannabinoid CB1 Receptor Binding, percent inhibition
T1 construct: expressed in transfected cells; host or cells: SK-N-MC cells, stably transfected with pcDNA3 CB-1 (human); semi-purified membrane pellet
Experimental: (§1) Binding Assay for CB1 or CB2 Agonists or Inverse Agonists
(§2) The human CB1 and CB2 receptors were stably expressed in SK-N-MC cells transfected with pcDNA3 CB-1 (human) or pcDNA3 CB-2 (human). The cells were grown in T-180 cell culture flasks under standard cell culture conditions at 37° C. in a 5% CO2 atmosphere. The cells were harvested by trysinization and homogenized in a homogenization buffer (10 mM Tris, 0.2 mM MgCl2, 5 mM KCl, with protease inhibitors aprotinin, leupeptin, pepstatin A and bacitracin) and centrifuged (2000 g). The supernatant was then centrifuged in 2M sucrose (31,300 g) to produce a semi-purified membrane pellet. The pellet was resuspended in homogenization and stored at −80° C.
(§3) On the day of the assay, the pellet was thawed on ice and diluted in assay buffer (50 mM Tris-HCl, 5 mM MgCl2, 2.5 mM EDTA, 0.5 mg/mL fatty acid free bovine serum albumin, pH 7.5). The diluted membrane pellet was added with buffer, either a test compound or vehicle standard and the radioligand […] (0.2 nM) to the wells of a 96-well polypropylene plate. Non-specific binding was measured in wells containing W1N 55,212 (10 uM). The plate was covered and incubated for 90 minutes at 30° C. The contents were then aspirated onto a Packard Unifilter GF/C filter bottom plate prewet with 0.5% polyethyleneimine. The wells of the polypropylene plate were rinsed and aspirated seven times with a 0.9% saline-0.5% Tween 20 solution. The Unifilter plate was dried, scintillation cocktail was added to each well and the counts representing binding were quantitated in a TopCount scintillation counter.
(§4) For compounds tested, an IC50 binding value was obtained from percent inhibition studies in which various test concentrations were used. The binding value was calculated by linear regression.
(§5) For compounds without an IC50 binding value, the percent inhibition (%) was obtained at a test concentration of 0.2 μM.

human CB2 receptor = molecular target: T2, human CB2 receptor (Homo sapiens, UniProt P34972); assay: Cannabinoid CB2 receptor binding assay ([3H]-CP-55,940 displacement, SK-N-MC cell membranes); conditions: 1.5 h; test concentration of 0.2 μM; radioligand CP-55,940 0.2 nM; read-out: Cannabinoid CB2 Receptor Binding, percent inhibition
T2 construct: expressed in transfected cells; host or cells: SK-N-MC cells, stably transfected with pcDNA3 CB-2 (human); semi-purified membrane pellet
Experimental: as §1, §2, §3, §4, §5

T2 sequence (P34972 whole entry): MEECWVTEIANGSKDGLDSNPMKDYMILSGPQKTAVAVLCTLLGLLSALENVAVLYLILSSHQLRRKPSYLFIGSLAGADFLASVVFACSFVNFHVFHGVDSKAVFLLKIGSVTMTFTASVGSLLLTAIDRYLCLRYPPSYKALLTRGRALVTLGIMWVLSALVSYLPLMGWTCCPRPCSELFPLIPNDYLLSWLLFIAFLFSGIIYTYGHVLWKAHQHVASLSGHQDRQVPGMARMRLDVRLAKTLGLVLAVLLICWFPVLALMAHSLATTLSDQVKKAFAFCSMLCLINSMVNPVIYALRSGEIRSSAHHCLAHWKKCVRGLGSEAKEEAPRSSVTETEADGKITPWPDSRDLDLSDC
T1 sequence (P21554 whole entry): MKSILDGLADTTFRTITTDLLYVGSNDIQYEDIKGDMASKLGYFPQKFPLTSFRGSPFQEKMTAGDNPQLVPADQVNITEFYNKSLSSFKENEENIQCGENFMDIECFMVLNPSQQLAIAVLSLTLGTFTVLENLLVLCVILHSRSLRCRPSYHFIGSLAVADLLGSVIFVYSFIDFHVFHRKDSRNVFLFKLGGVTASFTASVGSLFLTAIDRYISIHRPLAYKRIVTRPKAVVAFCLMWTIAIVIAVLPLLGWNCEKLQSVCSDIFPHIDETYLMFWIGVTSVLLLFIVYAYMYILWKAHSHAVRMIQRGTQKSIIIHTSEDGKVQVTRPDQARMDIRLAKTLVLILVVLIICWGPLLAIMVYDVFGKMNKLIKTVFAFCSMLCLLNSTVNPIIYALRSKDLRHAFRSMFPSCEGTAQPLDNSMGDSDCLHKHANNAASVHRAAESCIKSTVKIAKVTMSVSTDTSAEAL

Row | Compound | IC50 (human CB1 receptor) | inhibition at 0.2 µM (human CB2 receptor) | inhibition at 0.2 µM (human CB1 receptor)
1 | CCc1c(C(=O)N[C@@H](C)c2ccccn2)nn(-c2ccc(Cl)cc2Cl)c1-c1ccc(Br)s1 [Cpd 41, 5-(5-bromo-thiophen-2-yl)-1-(2,4-dichloro-phenyl)-4-ethyl-1H-pyrazole-3-carboxylic acid [(1S)-1-pyridin-2-yl-ethyl]-amide] | 15 nM | 45% | –
2 | Cc1c(C(=O)N[C@@H](C)C2CCCCC2)nn(-c2ccc(Cl)cc2Cl)c1-c1cccs1 [Cpd 8, 1-(2,4-dichloro-phenyl)-4-methyl-5-thiophen-2-yl-1H-pyrazole-3-carboxylic acid [(1S)-1-cyclohexyl-ethyl]-amide] | – | 1% | 34%
3 | CCc1c(C(=O)NN2CCCCC2)nn(-c2ccc(Cl)cc2Cl)c1-c1ccc(Cl)s1 [Cpd 15, 5-(5-chloro-thiophen-2-yl)-1-(2,4-dichloro-phenyl)-4-ethyl-1H-pyrazole-3-carboxylic acid piperidin-1-ylamide] | 12 nM | 29% | –
4 | Cc1c(C(=O)NN2CCCCC2)nn(-c2ccc(Cl)cc2Cl)c1-c1cccs1 [Cpd 10, 1-(2,4-dichloro-phenyl)-4-methyl-5-thiophen-2-yl-1H-pyrazole-3-carboxylic acid piperidin-1-ylamide] | – | 6% | 37%
5 | Cc1c(C(=O)NN2CCCCC2)nn(-c2ccc(Cl)cc2Cl)c1-c1cc(Br)cs1 [Cpd 44, 5-(4-bromo-thiophen-2-yl)-1-(2,4-dichloro-phenyl)-4-methyl-1H-pyrazole-3-carboxylic acid piperidin-1-ylamide] | – | 53% | 74%
6 | Cc1c(C(=O)NN2CCC(O)CC2)nn(-c2ccc(Cl)cc2Cl)c1-c1ccc(Cl)s1 [Cpd 4, 5-(5-chloro-thiophen-2-yl)-1-(2,4-dichloro-phenyl)-4-methyl-1H-pyrazole-3-carboxylic acid (4-hydroxy-piperidin-1-yl)-amide] | – | 11% | 27%
7 | CCc1c(C(=O)N[C@@H](C)C2CCCCC2)nn(-c2ccc(Cl)cc2Cl)c1-c1ccc(Br)s1 [Cpd 43, 5-(5-bromo-thiophen-2-yl)-1-(2,4-dichloro-phenyl)-4-ethyl-1H-pyrazole-3-carboxylic acid [(1S)-1-cyclohexyl-ethyl]-amide] | 8 nM | 39% | –
8 | C[C@@H](NC(=O)c1nn(-c2ccc(Cl)cc2Cl)c(-c2ccc(Cl)s2)c1C#N)C1CCCCC1 [Cpd 24, 5-(5-chloro-thiophen-2-yl)-4-cyano-1-(2,4-dichloro-phenyl)-1H-pyrazole-3-carboxylic acid [(1R)-1-cyclohexyl-ethyl]-amide] | 15 nM | 13% | –
9 | CCc1c(C(=O)N[C@H](C)c2ccccc2)nn(-c2ccc(Cl)cc2Cl)c1-c1ccc(Br)s1 [Cpd 40, 5-(5-bromo-thiophen-2-yl)-1-(2,4-dichloro-phenyl)-4-ethyl-1H-pyrazole-3-carboxylic acid [(1R)-1-phenyl-ethyl]-amide] | – | 52% | 78%
10 | C[C@@H](NC(=O)c1nn(-c2ccc(Cl)cc2Cl)c(-c2cccs2)c1C#N)c1ccccn1 [Cpd 17, 4-cyano-1-(2,4-dichloro-phenyl)-5-thiophen-2-yl-1H-pyrazole-3-carboxylic acid [(1R)-1-pyridin-2-yl-ethyl]-amide] | – | 14% | 25%
11 | Cc1c(C(=O)NN2CCCCC2)nn(-c2ccc(Cl)cc2Cl)c1-c1ccc(I)s1 [Cpd 29, 1-(2,4-dichloro-phenyl)-5-(5-iodo-thiophen-2-yl)-4-methyl-1H-pyrazole-3-carboxylic acid piperidin-1-ylamide] | 17 nM | 55% | –
12 | C[C@H](NC(=O)c1nn(-c2ccc(Cl)cc2Cl)c(-c2ccc(Cl)s2)c1C#N)c1ccccc1 [Cpd 26, 5-(5-chloro-thiophen-2-yl)-4-cyano-1-(2,4-dichloro-phenyl)-1H-pyrazole-3-carboxylic acid [(1S)-1-phenyl-ethyl]-amide] | 110 nM | 16% | –
13 | Cc1c(C(=O)NN2CCCCC2)nn(-c2ccc(Cl)cc2Cl)c1-c1ccc(Br)s1 [Cpd 22, 5-(5-bromo-thiophen-2-yl)-1-(2,4-dichloro-phenyl)-4-methyl-1H-pyrazole-3-carboxylic acid piperidin-1-ylamide] | 37 nM | 42% | –
14 | Cc1ccc(-c2c(C)c(C(=O)N[C@H](C)C3CCCCC3)nn2-c2ccc(Cl)cc2Cl)o1 [Cpd 57, 1-(2,4-dichloro-phenyl)-4-methyl-5-(5-methyl-furan-2-yl)-1H-pyrazole-3-carboxylic acid [(1R)-1-cyclohexyl-ethyl]-amide] | – | 28% | 46%
15 | Cc1c(C(=O)N[C@@H](C)c2ccccc2)nn(-c2ccc(Cl)cc2Cl)c1-c1cccs1 [Cpd 7, 1-(2,4-dichloro-phenyl)-4-methyl-5-thiophen-2-yl-1H-pyrazole-3-carboxylic acid [(1S)-1-phenyl-ethyl]-amide] | – | 0% | 28%
16 | CCc1c(C(=O)NN2CCCCC2)nn(-c2ccc(Cl)cc2Cl)c1-c1ccc(Br)s1 [Cpd 35, 5-(5-bromo-thiophen-2-yl)-1-(2,4-dichloro-phenyl)-4-ethyl-1H-pyrazole-3-carboxylic acid piperidin-1-ylamide] | 13 nM | 29% | –
17 | Cc1c(C(=O)N[C@H](C)C2CCCCC2)nn(-c2ccc(Cl)cc2Cl)c1-c1cccs1 [Cpd 5, 1-(2,4-dichloro-phenyl)-4-methyl-5-thiophen-2-yl-1H-pyrazole-3-carboxylic acid [(1R)-1-cyclohexyl-ethyl]-amide] | – | 15% | 43%
18 | Cc1c(C(=O)N[C@H](C)c2ccccc2)nn(-c2ccc(Cl)cc2Cl)c1-c1ccc(F)s1 [Cpd 32, 1-(2,4-dichloro-phenyl)-5-(5-fluoro-thiophen-2-yl)-4-methyl-1H-pyrazole-3-carboxylic acid [(1R)-1-phenyl-ethyl]-amide] | 46 nM | 55% | –
19 | Cc1c(C(=O)N[C@@H](C)C2CCCCC2)nn(-c2ccc(Cl)cc2Cl)c1-c1cc(Br)cs1 [Cpd 48, 5-(4-bromo-thiophen-2-yl)-1-(2,4-dichloro-phenyl)-4-methyl-1H-pyrazole-3-carboxylic acid [(1S)-1-cyclohexyl-ethyl]-amide] | – | 49% | 60%
20 | Cc1ccc(-c2c(C)c(C(=O)N[C@H](C)c3ccccc3)nn2-c2ccc(Cl)cc2Cl)o1 [Cpd 55, 1-(2,4-dichloro-phenyl)-4-methyl-5-(5-methyl-furan-2-yl)-1H-pyrazole-3-carboxylic acid [(1R)-1-phenyl-ethyl]-amide] | – | 30% | 58%
21 | Cc1c(C(=O)N[C@@H](C)c2ccccn2)nn(-c2ccc(Cl)cc2Cl)c1-c1cc(Br)cs1 [Cpd 47, 5-(4-bromo-thiophen-2-yl)-1-(2,4-dichloro-phenyl)-4-methyl-1H-pyrazole-3-carboxylic acid [(1S)-1-pyridin-2-yl-ethyl]-amide] | – | 46% | 56%
22 | Cc1c(C(=O)N[C@@H](C)C2CCCCC2)nn(-c2ccc(Cl)cc2Cl)c1-c1ccc(F)s1 [Cpd 33, 1-(2,4-dichloro-phenyl)-5-(5-fluoro-thiophen-2-yl)-4-methyl-1H-pyrazole-3-carboxylic acid [(1S)-1-cyclohexyl-ethyl]-amide] | – | 41% | 73%
23 | Cc1c(C(=O)N[C@@H](C)c2ccccc2)nn(-c2ccc(Cl)cc2Cl)c1-c1ccc(F)s1 [Cpd 31, 1-(2,4-dichloro-phenyl)-5-(5-fluoro-thiophen-2-yl)-4-methyl-1H-pyrazole-3-carboxylic acid [(1S)-1-phenyl-ethyl]-amide] | – | 39% | 64%
24 | Cc1c(C(=O)NN2CCCCC2=O)nn(-c2ccc(Cl)cc2Cl)c1-c1ccc(Cl)s1 [Cpd 30, 5-(5-chloro-thiophen-2-yl)-1-(2,4-dichloro-phenyl)-4-methyl-1H-pyrazole-3-carboxylic acid (2-oxo-piperidin-1-yl)-amide] | – | 15% | 17%
25 | C[C@@H](NC(=O)c1nn(-c2ccc(Cl)cc2Cl)c(-c2ccc(Cl)s2)c1C#N)c1ccccn1 [Cpd 27, 5-(5-chloro-thiophen-2-yl)-4-cyano-1-(2,4-dichloro-phenyl)-1H-pyrazole-3-carboxylic acid [(1R)-1-pyridin-2-yl-ethyl]-amide] | – | 12% | 69%
